What is called IC50 is the midpoint of a concentration-inhibition curve. The LD50 is the dose expected to kill half of the subjects tested.

Results on two compounds are retold here after US5824657A, “Aminoacyl sulfamides for the treatment of hyperproliferative disorders” (priority 1997, dated 1998).

Structures are written as SMILES.

For series [1], the system named is aminoacyl-tRNA synthetases (aaRS) isolated from HeLa cells. As to the kind of experiment: IC50 determination, aaRS charging and trichloroacetic acid precipitation assay, aaRS partially purified from HeLa cell extracts. Format: biochemical. Particulars: preincubation 20 minutes at 25° C., reaction 5-20 minutes. As to the method: IC50 determinations for the aminoacyl-tRNA synthetases (aaRS) isolated from HeLa cells were carried out using a modification of the aaRS charging and trichloroacetic acid precipitation assay described previously (see examples: D. Kern et. al., Biochemie, 61, 1257-1272 (1979) and J. Gilbart et. al. Antimicrobial Agents and Chemotherapy, 37(1), 32-38 (1993)). […] For practical purposes, the minimal acceptable value is approximately 2000 cpm per 10 minute reaction. The final dilution of the HeLa extract in the assays for the aaRS enzymes varies from 50 to 1200-fold.
Test compounds were typically present as serial dilutions in concentrations ranging from 0.35 nM to 35 μM. Test compound solutions were prepared by dissolving test compounds in 100% dimethyl sulfoxide and diluting to the final concentration with 50 mM HEPES, pH 7.5. IC50 determinations were typically performed in duplicate with each experiment containing 4-8 concentrations of test compound and with duplicate controls containing no inhibitor.
The reaction was incubated at 25° C. for 5-20 minutes. At specified time points a 15 microliter aliquot was removed and added to a well of a Millipore filtration plate (Multiscreen-FB, MAFB NOB 10) containing 100 microliters of cold 5% (wt/vol) trichloroacetic acid. Trichloroacitic acid precipitable material was collected by filtration on a Millipore Multiscreen filtration station, washed twice with cold 5% trichloroacetic acid, twice with water, and dried. Plates were typically allowed to air dry for several hours or baked at 50° C. in a vacuum oven for 30 minutes. The radioactivity on the dried plates was quantitated by the addition of Packard Microscint-20 to the wells and counting with a Packard TopCount scintillation counter.
Inhibitor activity typically was reported as a percentage of the control aaRS activity. […] The IC50 (in nM, Hela Cells) values of representative compounds of the present invention are listed in column 5 of Table I.

Series [2] deals with human epidermoid carcinoma cell line A-253 (ATCC HTB 41). Put plainly: MTT assay, human epidermoid carcinoma cell line. Particulars: A253, MTT assay, exposure 72 hours, plot extended by eye for compounds active at lowest dose, read-out: IC50 Human Epidermoid Carcinoma Cells ATCC # HTB 41. Format: cell-based. On the procedure: The MTT assay was used as a model to measure the inhibitory effects of the compounds of Formula I. The MTT assay is considered the most convenient modern assay for the determination of cell viability and cell proliferation. An MTT assay kit is commercially available (Chemicon International Inc., Temecula, Calif.). The MTT assay was performed according to manufacturer's instructions as outlined below.
A human epidermoid carcinoma cell line, designated as A-253 (ATCC HTB 41), was obtained in frozen vials from the American Type Culture Collection, Rockville, Md. Monolayer cultures were established from the vials by growth in RPMI 1640 medium supplemented with 10% fetal bovine serum (heat-inactivated), 2 mM L-glutamine, and pen-strep (100 units/ml; 100 μg/ml). The cultures were incubated at 37±1.5° C. in 5±1% CO2 in humidified air and were passaged weekly to avoid overgrowth. The laboratory cultures used for the present study were at passage seven after receipt of frozen stocks from ATCC.
Compounds of Formula I in powder form were stored at room temperature in plastic micro centrifuge tubes. Each tube was placed in a plastic bag containing desiccant. Each test compound was prepared as a 2 mg/ml solution in RPMI 1640 medium (non-supplemented) on the day of use, and the appropriate dilutions were prepared with the same vehicle.
Each compound was handled by sterile techniques in Class II, Type B biological safety cabinets.
The reference control compound was methotrexate at concentrations of 0.5 μg/ml to 50 μg/ml. A 1 mg/ml stock was prepared on the day of dosing and diluted to the appropriate concentrations using RPMI 1640 medium (non-supplemented).
A blank control was included in the MTT assay in order to determine the absorbance associated with the absence of any cells. This control was RPMI 1640 culture medium carried through the same procedures used to culture the cells in the microwell plates and to conduct the MTT assay color development. The microwell plate reader was zeroed against the blank control prior to recording the absorbance in the test wells.
Laboratory monolayer cultures of A-253 cells were trypsinized and seeded at a concentration of 24,000 cells in 0.05 ml of complete RPMI 1640 culture medium per well in 96-well plates. Eight wells in a column were seeded for each test condition. The blank control was prepared by adding 0.05 ml of culture medium (no cells) to 8 wells in the first column of each plate. A separate microwell plate was used for each compound of Formula I.
The test compound treatments were initiated immediately after seeding the cells by adding 0.05 ml of treatment medium to each microwell. Ten different test compound concentrations were prepared in culture medium (without serum), and each concentration was applied to a volume of eight wells on the appropriate plate. The final concentrations in the wells were 1000, 500, 250, 100, 50, 25, 10, 5, 2.5, and 1 μg/ml.
An untreated (zero-dose) condition was included as a column of 8 wells on each plate. The zero-dose and blank control wells received 0.05 ml of culture medium (without serum). The microwell plates were placed in an incubator at 37±1.5° C. in 5% CO2 in humidified air for an exposure period of 72±0.5 hours.
After the exposure period, 0.1 ml of MTT dye solution (0.5 mg/ml in serum free RPMI 1640 medium) was added to each micowell. The cultures were returned to the incubator for 2±0.1 hours. Then the medium was removed from each well and placed into a clean microwell plate for temporary storage. A volume of 0.1 ml of color development solution (Solution C, isopropanol with 0.04M HCl, Chemicon MTT Assay kit, Chemicon International Inc., Temecula, Calif.) was added to each new microwell. The contents were carefully mixed and allowed to sit at room temperature for approximately 1 hour. The medium that was saved from each microwell then was pipetted back into the well from which it originally came. […]

For series [3], the system named is normal human skin fibroblasts cell line ATCC CRL 1501. Put plainly: MTT assay, normal skin fibroblasts. Type of series: cell-based. Particulars: Skin fibroblast, similar manner to HTB 41 assay. On the technique in general: Formazan colour is commonly taken as a measure of viable cells.
Procedure: The MTT assay was used as a model to measure the inhibitory effects of the compounds of Formula I. The MTT assay is considered the most convenient modern assay for the determination of cell viability and cell proliferation. […] The MTT assay was performed according to manufacturer's instructions as outlined below.
The cultures were returned to the incubator for 2±0.1 hours. Then the medium was removed from each well and placed into a clean microwell plate for temporary storage. A volume of 0.1 ml of color development solution (Solution C, isopropanol with 0.04M HCl, Chemicon MTT Assay kit, Chemicon International Inc., Temecula, Calif.) was added to each new microwell. […] The absorbance at 540 nm wavelength was determined in a microwell plate reader within two hours of the final preparation of the plates.
The absorbance at 540 nm was recorded for each well by the microwell plate reader after the instrument was zeroed against the blank controls for each plate. The mean absorbance for each test condition was calculated and compared to the mean absorbance for the zero-dose wells in order to obtain percent values. […]
Series [4] is classed as in vitro ADME, human. As to the method:
Five formulations of Compound XIV were prepared for in vitro study. The formulations are represented in Table III
Franz static diffusion chambers were filled with a 4% BSA isotonic buffered saline and equilibrated to a temperature of 37° C. by a circulating water pump. Excised human cadaver skin (~0.2 mm thickness), which is either intact or tape-stripped, is placed onto each chamber.
The test formulations containing non-radioactive Compound XIV were spiked with tritiated Compound XIV. The specific radioactivity was about 0.05 μCi/mg test formulation. Spiked formulations were applied to the skin surface. The specific radioactivity in the stratum corneum, epidermis, dermis and the reservoir were measured at 1, 3, 6 and 24 h time points by liquid scintillation counting, to investigate cumulative penetration at each time point. The specific activity is expressed as a percentage relative to the total recovery from the reservoir, skin wipes, and the respective skin layers at the end of each experiment.
Each of the five formulations were tested on intact skin (5 replicates each) and tape-stripped skin (only in one diffusion cell) to investigate cumulative penetration at 0, 1, 3, 6, and 24 hours and tissue recovery was measured at 24 hours. […]

A short description of series [5]: Acute toxicity in the mouse, intraperitoneal. On the procedure: Six groups containing 5 CD-1 female mice (Charles River Lab, Mass.) weighing 19-23 g were used in the experiment. Water and Agway rodent chow were provided ad libitum throughout the study. The laboratory animals were handled according to the institutional animal husbandry Standard Operating Procedures.
The solution was filtered with 0.2 μm Nalgene syringe filter and then further diluted serially with normal saline by 5-fold (0.6 ml to 3.0 ml) to 0.016 mg/ml. Group 1 animals were injected intraperitoneally (i.p.) with 10 ml/kg normal saline as negative controls. Groups 2 to 6 were given Compound XIV i.p. at 100, 20, 4, 0.8 and 0.16 mg/kg, respectively.
The LD50 of the compound was calculated by the Method of Probits (See Probit Analysis, 3rd Edition, D. J. Finney, Cambridge University Press, Cambridge, 1971). All surviving animals were sacrificed after the last observation on seventh day post-treatment.

The subject of a further series is bacterial growth. As to conditions: Osada and Isono 1985; cited from earlier work.

On to `Nc1ncnc2c1ncn2[C@@H]1O[C@H](CNS(=O)(=O)NC(=O)[C@@H](N)Cc2ccccc2)[C@@H](O)[C@H]1O` [Compound XIV, 5'-deoxy-adenosine 5'-N-(N-L-phenylalanyl)sulfamide], for which, in series [1], the IC50 worked out at 5 nM. In addition, in series [2], the IC50 is 530 nM. In addition, the IC50 in series [3] worked out at 5.58 µM. In addition, in series [4], the “penetration of target tissue, epidermis” value was “penetrates the target tissue, epidermis, in significant concentration at 6 hours and levels are generally increased at 24 hours”. Further, in series [5] (i.p. 100 mg/kg (group 2)), the mortality entry is reported as “Most of the group 2 mice died between 8 to 24 hours after injection”. Moreover, in series [5] (mouse, in vivo, ip), the “95% confidence limit of the LD50” value is 24 to 63 mg/kg, the 50% lethal dose (LD50) at 168 h was determined as 44 mg/kg and the tolerability result is reported as “a high dose of Compound XIV was tolerated”. In addition, in series [5] (mouse, in vivo, ip, 20 mg/kg), the “body weight loss after injection” value was “about 10%” and the symptoms after dosing result was “no unusual symptoms observed”. The symptoms after dosing entry in series [5] (mouse, in vivo, ip, 100 mg/kg) was “showed loose hair starting at 3-4 hours after dosing and they also lost their appetite and became less active”.
As to `C[C@H](N)C(=O)NS(=O)(=O)OC[C@H]1O[C@@H](n2cnc3c(N)nc(Cl)nc32)[C@H](O)[C@@H]1O` [ascamycin], in the series on bacterial growth, the “inhibition of bacterial growth” value was “ineffective inhibitor against bacterial growth”.
